In patent US20060073530A1 (priority 2001, published 2006):
“And” between values parts separate entries of the source, which are not always exact repeats. Identical values can stand only once. “Also recorded” adds a separate entry of the source. Like-named read-outs stand apart in the source and are kept apart here.

Assays:
[1] = biological target: SrtBΔN (Staphylococcus aureus, UniProt Q2FZE3, E55A/N120I/R216K); format: biochemical, S. aureus; conditions: for SrtBΔN cleavage of NPQTN peptides: incubation of purified enzyme with inhibitor
[2] = biological target: SrtADN (Staphylococcus aureus, UniProt Q2FV99); format: biochemical, S. aureus
[3] = biological target: sortase (cleavage of sorting signals at the LPXTG motif) (Staphylococcus aureus, UniProt Q2FV99); format: cell-based, S. aureus OS2
[4] = tested on: staphylococci; format: cell-based, S. aureus OS2
[5] = biological target: sortase (Staphylococcus aureus, UniProt Q2FV99); format: biochemical, staphylococcal
[6] = tested on: Sec-dependent export of P1 precursor (SecA); format: cell-based, S. aureus OS2
[7] = tested on: surface protein SEB-MH6-CWS; format: cell-based, S. aureus OS2 and BB270
[8] = tested on: surface protein SEB-SPA490-524 (sortase acyl-enzyme intermediates); format: cell-based, S. aureus
[9] = tested on: staphylococci; assay: Growth of staphylococci in the presence of antibiotics; format: cell-based, S. aureus OS2
[10] = tested on: cell wall sorting of Seb-Spa490-524; format: cell-based, S. aureus OS2
[11] = tested on: bacterial cell wall synthesis; format: cell-based, S. aureus

O[C@H](CS)[C@H](O)CS (racemic) [dithiothreitol]
SrtB-mediated cleavage of NPQTN peptide ([1]; addition of DTT, even in the presence of MTSET): greatly stimulated SrtB-mediated cleavage | LPXTG peptide cleavage activity restored ([2]; MTSET-inactivated SrtADN incubated with 10 mM DTT): 80% | cleavage of sorting signals at the LPXTG motif (cell wall sorting reaction) [3]: did not affect the sorting reaction

O=C(O)CN(CCN(CC(=O)O)CC(=O)O)CC(=O)O [EDTA]
cleavage of sorting signals at the LPXTG motif (cell wall sorting reaction) [3]: Neither PMSF, which reacts with hydroxyl (Creighton, 1993), nor treatment with the divalent cation chelator EDTA interfered with cell wall sorting

CS(=O)(=O)SCCS(=O)(=O)[O-].[Na+] [MTSES]
cleavage of sorting signals at the LPXTG motif (cell wall sorting reaction) [3]: interfered with sorting albeit not as effectively as MTSET

C[N+](C)(C)CCSS(C)(=O)=O [MTSET, [2-(trimethylammonium)ethyl]methanethiosulfonate]
SrtBΔN cleavage of NPQTN peptides [1]: inhibited | incorporation of [35S]methionine by staphylococci [4]: prevented incorporation | hydroxylaminolysis of LPXTG peptide by SrtADN ([2]; pre-incubation with MTSET): abolished all enzymatic activity | hydroxylaminolysis of LPXTG peptide ([5]; pre-incubation of staphylococcal extracts with MTSET): inhibited | Sec-dependent export of P1 precursor [6]: remained unaltered | cleavage of sorting signals at the LPXTG motif (cell wall sorting reaction) [3]: sensitive; also recorded: interfered with the cleavage of sorting signals at the LPXTG motif

CCN1C(=O)C=CC1=O [N-ethylmaleimide]
cleavage of sorting signals at the LPXTG motif (cell wall sorting reaction) [3]: did not

NO [NH2OH, hydroxylamine]
release of SEB-MH6-CWS [7]: caused the release of SEB-MH6-CWS | amounts of released surface proteins [8]: increased amounts of released surface proteins | surface proteins released into the extra-cellular medium [8]: 16.9% and 12.7% | fluorescence intensity (LPXTG peptide cleavage) ([5]; 0.1 M NH2OH added to staphylococcal extracts): forty fold increase in fluorescence intensity

O=S(=O)(F)Cc1ccccc1 [PMSF]
cleavage of sorting signals at the LPXTG motif (cell wall sorting reaction) [3]: Neither PMSF, which reacts with hydroxyl (Creighton, 1993), nor treatment with the divalent cation chelator EDTA interfered with cell wall sorting

NC(=O)CI [iodoacetamide]
cleavage of sorting signals at the LPXTG motif (cell wall sorting reaction) [3]: did not

O=C(O)CI [iodoacetate]
cleavage of sorting signals at the LPXTG motif (cell wall sorting reaction) [3]: did not

OCCS [mercaptoethanol]
cleavage of sorting signals at the LPXTG motif (cell wall sorting reaction) [3]: did not affect the sorting reaction

CSS(C)(=O)=O [methylmethane thiosulfonate]
peptide bond hydrolysis / cleavage of LPETG peptide ([2]; SrtA DN, absence of the peptidoglycan substrate): inhibited

O=C(O)c1cc[c]([Hg][OH])cc1 [pHMB, p-hydroxymercuribenzoic acid]
SrtBΔN cleavage of NPQTN peptides [1]: inhibited | SrtAΔN cleavage of LPXTG containing peptides ([2]; incubation of purified enzyme with inhibitor): inhibited | cleavage of sorting signals at the LPXTG motif (cell wall sorting reaction) [3]: chemical inhibitors of the sorting reaction; also recorded: displayed an inhibitory effect

CC1(C)S[C@@H]2[C@H](NC(=O)Cc3ccccc3)C(=O)N2[C@H]1C(=O)O [penicillin, penicillin G]
growth rate of staphylococci [9]: reduced the growth rate | rate of cell wall sorting (P2 precursor accumulation) [10]: did not alter the rate of cell wall sorting

CN[C@H](CC(C)C)C(=O)N[C@H]1C(=O)N[C@@H](CC(N)=O)C(=O)N[C@H]2C(=O)N[C@H]3C(=O)N[C@H](C(=O)N[C@H](C(=O)O)c4cc(O)cc(O)c4-c4cc3ccc4O)[C@H](O)c3ccc(c(Cl)c3)Oc3cc2cc(c3O[C@@H]2O[C@H](CO)[C@@H](O)[C@H](O)[C@H]2O[C@H]2C[C@](C)(N)[C@H](O)[C@H](C)O2)Oc2ccc(cc2Cl)[C@H]1O [vancomycin]
inhibition of cell wall synthesis [11]: 20 fold | ratio of incorporated [3H]lysine/[3H]leucine [11]: 1.5 | growth rate of staphylococci [9]: reduced the growth rate | rate of cell wall sorting (P2 precursor accumulation) [10]: steady accumulation of P2 precursor

moenomycin
growth rate of staphylococci ([9]; 10 μg/ml antibiotic, compared to mock treated control): reduced the growth rate | rate of cell wall sorting (P2 precursor accumulation) [10]: similar, albeit weaker effect
